Laboratory results: ChEMBL document CHEMBL1144971, “Azido-containing aryl beta-diketo acid HIV-1 integrase inhibitors” (Bioorg Med Chem Lett, 2003)

What was measured:
[1] = biological target: T1, Human immunodeficiency virus type 1 integrase (Human immunodeficiency virus 1, UniProt Q7ZJM1); assay: (§1) Inhibitory concentration against Recombinant HIV-1 integrase (3'processing)
[2] = biological target: T1, Human immunodeficiency virus type 1 integrase; assay: as §1; remark: listed apart in the source
[3] = biological target: T1, Human immunodeficiency virus type 1 integrase; assay: (§2) Inhibitory concentration against Recombinant HIV-1 integrase (Standard transfer reaction)
MT4 [4] = assay: Antiviral potency was measured in HIV-1IIIb infected MT-4 human T-lymphoid cells; type: functional, cell-based
MT4 [5] = assay: Cytotoxic concentration was measured against MT-4 human T-lymphoid cells; type: functional
[6] = biological target: T1, Human immunodeficiency virus type 1 integrase; assay: as §2; remark: listed apart in the source

T1 sequence (Q7ZJM1 whole entry): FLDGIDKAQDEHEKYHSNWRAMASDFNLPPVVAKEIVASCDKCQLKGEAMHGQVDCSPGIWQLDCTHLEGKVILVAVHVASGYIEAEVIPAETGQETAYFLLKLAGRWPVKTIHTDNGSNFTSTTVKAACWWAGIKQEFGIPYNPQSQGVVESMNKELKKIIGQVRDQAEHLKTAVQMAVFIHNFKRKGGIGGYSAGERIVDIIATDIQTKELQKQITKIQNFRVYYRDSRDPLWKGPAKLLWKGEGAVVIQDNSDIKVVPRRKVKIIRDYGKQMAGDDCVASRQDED

Row | Structure (SMILES) | IC50 [1] [µM] | IC50 [2] [µM] | IC50 [3] [µM] | IC50 (MT4 [4]) [µM] | CC50 (MT4 [5]) [µM] | IC50 [6] [µM]
1 | O=C(O)C(=O)CC(=O)c1cccc(OCc2ccccc2)c1 | 100 | 85 | 0.35 | 0.6 | – | –
2 | O=C(O)C(=O)CC(=O)c1cc(OCc2ccccc2)cc(OCc2ccccc2)c1 | – | > 100 | 0.48 | 1.9 | > 50 | –
3 | N#CCCc1cccc(C(=O)CC(=O)C(=O)O)c1 | – | > 100 | 1.8 | > 25 | – | 1.5
4 | COc1ccc(CN=[N+]=[N-])cc1C(=O)CC(=O)C(=O)O | – | – | – | 13.5 | – | –
5 | [N-]=[N+]=NCc1ccc(C(=O)CC(=O)C(=O)O)cc1CN=[N+]=[N-] | – | > 100 | 0.15 | 14.3 | > 50 | 0.26
6 | [N-]=[N+]=NCc1cccc(C(=O)CC(=O)C(=O)O)c1 | – | > 100 | 1.53 | 2.1 | > 50 | –
7 | [N-]=[N+]=NCc1ccc(C(=O)CC(=O)C(=O)O)cc1 | – | > 100 | 7.1 | > 25 | – | 6.1
8 | [N-]=[N+]=NC1CC(N=[N+]=[N-])c2cc(C(=O)CC(=O)C(=O)O)ccc21 (stereo not given) | – | > 100 | 0.36 | > 25 | – | –
9 | [N-]=[N+]=NCc1cc(CN=[N+]=[N-])cc(C(=O)CC(=O)C(=O)O)c1 | – | > 100 | 2 | 5 | > 50 | 2.8
10 | COc1ccc(C(=O)CC(=O)C(=O)O)cc1CN=[N+]=[N-] | – | > 100 | 9 | > 25 | – | 8.5
11 | CC(C)Oc1ccc(CN=[N+]=[N-])cc1C(=O)CC(=O)C(=O)O | – | > 100 | 23 | 5.9 | – | 25
12 | [N-]=[N+]=NC1CCC(N=[N+]=[N-])c2cc(C(=O)CC(=O)C(=O)O)ccc21 (stereo not given) | – | 70 | 0.32 | 15.6 | – | –
